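Grown in 96-well plates, cells were treated for 48 hours with each compound at five concentrations. Insufficient inhibition: endpoint recorded as highest concentration tested. Abbreviation: GI50, concentration required for 50% inhibition of growth. The concentration for full growth arrest is given as TGI.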
Legend:
Assay in all cases: inhibition of tumour cell growth, NCI panel, 48 h
UACC-62 melanoma = tested on: UACC-62 melanoma
SW-620 colon = tested on: SW-620 colon
SK-MEL-28 melanoma = tested on: SK-MEL-28 melanoma
SK-OV-3 ovarian = tested on: SK-OV-3 ovarian
HCT-116 colon = tested on: HCT-116 colon
A498 renal = tested on: A498 renal
A549 NSCLC = tested on: A549 NSCLC
NCI/ADR-RES ovarian = tested on: NCI/ADR-RES ovarian
HOP-62 NSCLC = tested on: HOP-62 NSCLC
K-562 leukemia = tested on: K-562 leukemia
HCC-2998 colon = tested on: HCC-2998 colon
OVCAR-8 ovarian = tested on: OVCAR-8 ovarian
IGROV1 ovarian = tested on: IGROV1 ovarian
SF-268 CNS = tested on: SF-268 CNS
OVCAR-5 ovarian = tested on: OVCAR-5 ovarian
NCI-H23 lung = tested on: NCI-H23 lung
KM12 colon = tested on: KM12 colon
TK-10 renal = tested on: TK-10 renal
OVCAR-3 ovarian = tested on: OVCAR-3 ovarian
M14 melanoma = tested on: M14 melanoma
SNB-19 CNS = tested on: SNB-19 CNS
SF-539 CNS = tested on: SF-539 CNS
SK-MEL-2 melanoma = tested on: SK-MEL-2 melanoma
U251 CNS = tested on: U251 CNS
MOLT-4 leukemia = tested on: MOLT-4 leukemia
ACHN renal = tested on: ACHN renal
EKVX NSCLC = tested on: EKVX NSCLC
SK-MEL-5 melanoma = tested on: SK-MEL-5 melanoma
CAKI-1 renal = tested on: CAKI-1 renal
PC-3 prostate = tested on: PC-3 prostate
SF-295 CNS = tested on: SF-295 CNS
NCI-H460 lung = tested on: NCI-H460 lung
NCI-H522 lung = tested on: NCI-H522 lung
T-47D breast = tested on: T-47D breast
MDA-MB-231 breast = tested on: MDA-MB-231 breast
HL-60(TB) leukemia = tested on: HL-60(TB) leukemia
786-0 renal = tested on: 786-0 renal
DU-145 prostate = tested on: DU-145 prostate
HT29 colon = tested on: HT29 colon
MDA-MB-435 = tested on: MDA-MB-435
OVCAR-4 ovarian = tested on: OVCAR-4 ovarian
LOX IMVI melanoma = tested on: LOX IMVI melanoma
HS 578T breast = tested on: HS 578T breast
MCF7 breast = tested on: MCF7 breast
UO-31 renal = tested on: UO-31 renal
UACC-257 melanoma = tested on: UACC-257 melanoma
SN12C renal = tested on: SN12C renal
COLO 205 colon = tested on: COLO 205 colon
SNB-75 CNS = tested on: SNB-75 CNS
HOP-92 NSCLC = tested on: HOP-92 NSCLC
HCT-15 colon = tested on: HCT-15 colon

SMILES: O=C(Nc1ccc(Cl)cc1)Nc1ccc(Cl)c(C(F)(F)F)c1
- GI50 (UACC-62 melanoma): 2.71 µM
- TGI (UACC-62 melanoma): 14.7 µM
- GI50 (SW-620 colon): 2.93 µM
- TGI (SW-620 colon): 9.66 µM
- GI50 (SK-MEL-28 melanoma): 3.51 µM
- TGI (SK-MEL-28 melanoma): 11.9 µM
- GI50 (SK-OV-3 ovarian): 2.37 µM
- TGI (SK-OV-3 ovarian): 6.8 µM
- GI50 (HCT-116 colon): 1.95 µM
- TGI (HCT-116 colon): 5.33 µM
- GI50 (A498 renal): 2.38 µM
- TGI (A498 renal): 6.26 µM
- GI50 (A549 NSCLC): 3.39 µM
- TGI (A549 NSCLC): 15.8 µM
- GI50 (NCI/ADR-RES ovarian): 3.07 µM
- TGI (NCI/ADR-RES ovarian): 10.5 µM
- GI50 (HOP-62 NSCLC): 3 µM
- TGI (HOP-62 NSCLC): 11.3 µM
- GI50 (K-562 leukemia): 1.06 µM
- TGI (K-562 leukemia): 2.95 µM
- GI50 (HCC-2998 colon): 3.12 µM
- TGI (HCC-2998 colon): 8.81 µM
- GI50 (OVCAR-8 ovarian): 4.04 µM
- TGI (OVCAR-8 ovarian): 18.8 µM
- GI50 (IGROV1 ovarian): 4.01 µM
- TGI (IGROV1 ovarian): 16.2 µM
- GI50 (SF-268 CNS): 3.54 µM
- TGI (SF-268 CNS): 12.2 µM
- GI50 (OVCAR-5 ovarian): 4.52 µM
- TGI (OVCAR-5 ovarian): 14.9 µM
- GI50 (NCI-H23 lung): 2.21 µM
- TGI (NCI-H23 lung): 11 µM
- GI50 (KM12 colon): 2.21 µM
- TGI (KM12 colon): 6.56 µM
- GI50 (TK-10 renal): 4.25 µM
- TGI (TK-10 renal): 19.2 µM
- GI50 (OVCAR-3 ovarian): 1.86 µM
- TGI (OVCAR-3 ovarian): 7.76 µM
- GI50 (M14 melanoma): 3.59 µM
- TGI (M14 melanoma): 12.3 µM
- GI50 (SNB-19 CNS): 3.21 µM
- TGI (SNB-19 CNS): 12.6 µM
- GI50 (SF-539 CNS): 2.61 µM
- TGI (SF-539 CNS): 10.1 µM
- GI50 (SK-MEL-2 melanoma): 3.25 µM
- TGI (SK-MEL-2 melanoma): 10 µM
- GI50 (U251 CNS): 2.8 µM
- TGI (U251 CNS): 11.4 µM
- GI50 (MOLT-4 leukemia): 1.72 µM
- TGI (MOLT-4 leukemia): 4.4 µM
- GI50 (ACHN renal): 3.04 µM
- TGI (ACHN renal): 12.1 µM
- GI50 (EKVX NSCLC): 2.48 µM
- TGI (EKVX NSCLC): 11 µM
- GI50 (SK-MEL-5 melanoma): 1.55 µM
- TGI (SK-MEL-5 melanoma): 2.99 µM
- GI50 (CAKI-1 renal): 2.27 µM
- TGI (CAKI-1 renal): 8.84 µM
- GI50 (PC-3 prostate): 2.35 µM
- TGI (PC-3 prostate): 10.8 µM
- GI50 (SF-295 CNS): 1.97 µM
- TGI (SF-295 CNS): 8.87 µM
- GI50 (NCI-H460 lung): 1.7 µM
- TGI (NCI-H460 lung): 6.44 µM
- GI50 (NCI-H522 lung): 4.05 µM
- TGI (NCI-H522 lung): 29.1 µM
- GI50 (T-47D breast): 1.22 µM
- TGI (T-47D breast): 5.49 µM
- GI50 (MDA-MB-231 breast): 1.75 µM
- TGI (MDA-MB-231 breast): 3.91 µM
- GI50 (HL-60(TB) leukemia): 1.74 µM
- TGI (HL-60(TB) leukemia): 3.91 µM
- GI50 (786-0 renal): 2.75 µM
- TGI (786-0 renal): 10.7 µM
- GI50 (DU-145 prostate): 3.66 µM
- TGI (DU-145 prostate): 12.4 µM
- GI50 (HT29 colon): 2.86 µM
- TGI (HT29 colon): 10.7 µM
- GI50 (MDA-MB-435): 2.45 µM
- TGI (MDA-MB-435): 8.13 µM
- GI50 (OVCAR-4 ovarian): 2.33 µM
- TGI (OVCAR-4 ovarian): 11.4 µM
- GI50 (LOX IMVI melanoma): 3.31 µM
- TGI (LOX IMVI melanoma): 11.6 µM
- GI50 (HS 578T breast): 2.68 µM
- TGI (HS 578T breast): 8.31 µM
- GI50 (MCF7 breast): 2.16 µM
- TGI (MCF7 breast): 7.85 µM
- GI50 (UO-31 renal): 2.54 µM
- TGI (UO-31 renal): 10.2 µM
- GI50 (UACC-257 melanoma): 3.44 µM
- TGI (UACC-257 melanoma): 11.8 µM
- GI50 (SN12C renal): 2.29 µM
- TGI (SN12C renal): 10.5 µM
- GI50 (COLO 205 colon): 1.63 µM
- TGI (COLO 205 colon): 3.01 µM
- GI50 (SNB-75 CNS): 1.97 µM
- TGI (SNB-75 CNS): 7.73 µM
- GI50 (HOP-92 NSCLC): 1.55 µM
- TGI (HOP-92 NSCLC): 5.03 µM
- GI50 (HCT-15 colon): 2.65 µM
- TGI (HCT-15 colon): 11.6 µM
